# Test: Ethanol release testing at 100 rpm paddle speed (Example 32)
# Type: physicochemical
compound,measurement,setting,value
CC(=O)Nc1ccc(O)cc1 [APAP],"Percent Release, Mean","0% Ethanol, 15 min",52.2%
same,"Percent Release, Mean","0% Ethanol, 30 min",54.6%
same,"Percent Release, Mean","0% Ethanol, 45 min",56.8%
same,"Percent Release, Mean","0% Ethanol, 60 min",58.8%
same,"Percent Release, Mean","0% Ethanol, 75 min",60.8%
same,"Percent Release, Mean","0% Ethanol, 90 min",62.6%
same,"Percent Release, Mean","0% Ethanol, 120 min",66.0%
same,"Percent Release, Mean","0% Ethanol, 240 min",78.6%
same,"Percent Release, Mean","0% Ethanol, 480 min",95.5%
same,"Percent Release, Mean","5% Ethanol, 15 min",52.6%
same,"Percent Release, Mean","5% Ethanol, 30 min",55.1%
same,"Percent Release, Mean","5% Ethanol, 45 min",57.1%
same,"Percent Release, Mean","5% Ethanol, 60 min",58.9%
same,"Percent Release, Mean","5% Ethanol, 75 min",60.7%
same,"Percent Release, Mean","5% Ethanol, 90 min",62.3%
same,"Percent Release, Mean","5% Ethanol, 120 min",65.5%
same,"Percent Release, Mean","5% Ethanol, 240 min",77.2%
same,"Percent Release, Mean","5% Ethanol, 480 min",94.4%
same,"Percent Release, Mean","10% Ethanol, 15 min",51.7%
same,"Percent Release, Mean","10% Ethanol, 30 min",54.1%
same,"Percent Release, Mean","10% Ethanol, 45 min",56.0%
same,"Percent Release, Mean","10% Ethanol, 60 min",57.8%
same,"Percent Release, Mean","10% Ethanol, 75 min",59.5%
same,"Percent Release, Mean","10% Ethanol, 90 min",61.1%
same,"Percent Release, Mean","10% Ethanol, 120 min",64.1%
same,"Percent Release, Mean","10% Ethanol, 240 min",75.5%
same,"Percent Release, Mean","10% Ethanol, 480 min",93.5%
same,"Percent Release, Mean","20% Ethanol, 15 min",50.2%
same,"Percent Release, Mean","20% Ethanol, 30 min",53.4%
same,"Percent Release, Mean","20% Ethanol, 45 min",55.5%
same,"Percent Release, Mean","20% Ethanol, 60 min",57.3%
same,"Percent Release, Mean","20% Ethanol, 75 min",59.0%
same,"Percent Release, Mean","20% Ethanol, 90 min",60.5%
same,"Percent Release, Mean","20% Ethanol, 120 min",63.3%
same,"Percent Release, Mean","20% Ethanol, 240 min",76.0%
same,"Percent Release, Mean","20% Ethanol, 480 min",91.9%
same,"Percent Release, Mean","40% Ethanol, 15 min",16.7%
same,"Percent Release, Mean","40% Ethanol, 30 min",30.4%
same,"Percent Release, Mean","40% Ethanol, 45 min",38.5%
same,"Percent Release, Mean","40% Ethanol, 60 min",43.1%
same,"Percent Release, Mean","40% Ethanol, 75 min",46.1%
same,"Percent Release, Mean","40% Ethanol, 90 min",48.3%
same,"Percent Release, Mean","40% Ethanol, 120 min",51.1%
same,"Percent Release, Mean","40% Ethanol, 240 min",60.8%
same,"Percent Release, Mean","40% Ethanol, 480 min",77.2%

# — US20140294956A1, “GASTRIC RETENTIVE EXTENDED RELEASE PHARMACEUTICAL COMPOSITIONS” (MALLINCKRODT LLC, priority 2011, published 2014)
